Calls of active or inactive are those of the source.
How the values were obtained:
[1] = biological target: T1, Heat shock factor protein 1 (Mus musculus, UniProt P38532); assay: HSF1 potentiators in luciferase reporter cells, confirmation, cell-based, NIH3T3, luminescence, dose retest (AID 435004); format: functional;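 further: stress induced by proteasome inhibitor MG132 added 30 min after compound; luciferase reporter driven by HSF1 response element in NIH3T3 cells; actives raise luminescence as potentiators of the MG132 stress response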
T1 sequence (P38532 whole entry): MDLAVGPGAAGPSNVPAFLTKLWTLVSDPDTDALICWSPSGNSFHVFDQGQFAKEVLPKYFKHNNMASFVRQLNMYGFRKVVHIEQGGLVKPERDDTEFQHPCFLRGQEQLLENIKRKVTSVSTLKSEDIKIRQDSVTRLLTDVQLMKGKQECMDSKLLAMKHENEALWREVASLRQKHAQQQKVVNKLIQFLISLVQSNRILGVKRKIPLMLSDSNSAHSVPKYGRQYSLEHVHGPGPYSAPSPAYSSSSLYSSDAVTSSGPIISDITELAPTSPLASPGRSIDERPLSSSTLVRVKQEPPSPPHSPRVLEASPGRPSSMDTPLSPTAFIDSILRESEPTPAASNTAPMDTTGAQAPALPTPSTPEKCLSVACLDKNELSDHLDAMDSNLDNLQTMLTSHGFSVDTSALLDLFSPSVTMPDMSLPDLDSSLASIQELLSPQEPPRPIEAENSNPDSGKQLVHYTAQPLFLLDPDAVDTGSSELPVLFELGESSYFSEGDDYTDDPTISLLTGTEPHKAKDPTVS

[2] = biological target: FAD-linked sulfhydryl oxidase ALR (Homo sapiens, UniProt P55789); assay: inhibitors of human ALR sulfhydryl oxidase, dose response, biochemical, H2O2 detection, luminescence, cherry-pick (AID 493248)
[3] = biological target: Luciferin 4-monooxygenase (Photinus pyralis, UniProt P08659); assay: firefly luciferase enzyme inhibitors, dose response, biochemical, luminescence (AID 1891)
[4] = Luminescence Cell-Based Dose Confirmation HTS to Identify Inhibitors of Platelet Dense Granule Release. [Related pubchem assays: 1663 (Primary HTS), 1678 (Summary of Project)]; format: functional
Cytochrome P450 2C9 = Cytochrome P450 2C9 (Homo sapiens, UniProt P11712)
Cytochrome P450 2C19 = Cytochrome P450 2C19 (Homo sapiens, UniProt P33261); assay: Cytochrome panel assay with activity outcomes. Panel member name: p450-cyp2c19 Compounds with AC50 equal or less than 10 uM are considered active; format: functional; details: read-out: AC50
Cytochrome P450 3A4 = Cytochrome P450 3A4 (Homo sapiens, UniProt P08684);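 further: CYP3A4 tested as one member of a cytochrome P450 panel screen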
[5] = Luminescence Cell-Based Dose Retest to Confirm Inhibitors of Cancer Stem Cells. [Related pubchem assays (depositor defined):AID2717, AID2721]; format: functional; details: Homo sapiens
[6] = biological target: T2, Corticotropin-releasing factor receptor 2/Corticotropin-releasing factor-binding protein (Homo sapiens, UniProt P24387+Q13324); assay: activators of CRF receptor 2 with binding protein – uHTS hits, confirmation (AID 602473); format: functional; details: read-out: EC50_Mean
T2 sequence (Q13324 whole entry): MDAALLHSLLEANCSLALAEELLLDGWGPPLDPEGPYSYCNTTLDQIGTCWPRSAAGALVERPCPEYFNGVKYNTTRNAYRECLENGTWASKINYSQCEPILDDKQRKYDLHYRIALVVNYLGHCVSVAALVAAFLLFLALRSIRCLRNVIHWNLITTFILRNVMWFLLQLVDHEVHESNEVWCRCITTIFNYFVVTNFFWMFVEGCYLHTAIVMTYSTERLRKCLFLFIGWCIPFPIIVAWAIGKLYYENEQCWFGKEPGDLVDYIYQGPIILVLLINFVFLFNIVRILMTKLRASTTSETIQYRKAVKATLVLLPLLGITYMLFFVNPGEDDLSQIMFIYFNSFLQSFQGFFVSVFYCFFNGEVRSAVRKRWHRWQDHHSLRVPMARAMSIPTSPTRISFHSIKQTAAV
T2 sequence (P24387 whole entry): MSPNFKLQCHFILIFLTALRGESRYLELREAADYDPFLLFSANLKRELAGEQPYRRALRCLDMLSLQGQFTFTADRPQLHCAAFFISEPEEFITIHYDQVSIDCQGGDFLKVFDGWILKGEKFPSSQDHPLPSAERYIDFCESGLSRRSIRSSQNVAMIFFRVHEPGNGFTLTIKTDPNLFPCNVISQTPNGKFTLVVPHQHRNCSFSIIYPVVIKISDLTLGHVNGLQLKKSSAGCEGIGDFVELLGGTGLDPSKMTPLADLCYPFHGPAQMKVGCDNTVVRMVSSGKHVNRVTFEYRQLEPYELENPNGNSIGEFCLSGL

Cytochrome P450 2D6 = Cytochrome P450 2D6 (Homo sapiens, UniProt P10635);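 further: CYP2D6 member of a cytochrome P450 panel assay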
Sequence of Cytochrome P450 2D6 (P10635 whole entry): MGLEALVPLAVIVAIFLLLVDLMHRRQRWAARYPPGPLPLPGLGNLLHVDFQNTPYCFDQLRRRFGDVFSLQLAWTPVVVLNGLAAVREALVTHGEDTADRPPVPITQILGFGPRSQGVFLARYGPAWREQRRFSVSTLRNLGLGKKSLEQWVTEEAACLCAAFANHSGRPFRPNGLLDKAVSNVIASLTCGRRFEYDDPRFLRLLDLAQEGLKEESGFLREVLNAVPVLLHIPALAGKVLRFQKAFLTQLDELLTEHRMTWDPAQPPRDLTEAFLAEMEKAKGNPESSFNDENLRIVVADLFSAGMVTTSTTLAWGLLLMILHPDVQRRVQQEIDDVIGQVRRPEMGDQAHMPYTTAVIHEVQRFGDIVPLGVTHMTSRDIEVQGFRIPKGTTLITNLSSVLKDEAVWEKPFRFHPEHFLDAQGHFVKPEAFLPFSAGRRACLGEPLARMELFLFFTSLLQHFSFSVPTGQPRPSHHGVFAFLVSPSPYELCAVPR

Sequence of Cytochrome P450 2C19 (P33261 whole entry): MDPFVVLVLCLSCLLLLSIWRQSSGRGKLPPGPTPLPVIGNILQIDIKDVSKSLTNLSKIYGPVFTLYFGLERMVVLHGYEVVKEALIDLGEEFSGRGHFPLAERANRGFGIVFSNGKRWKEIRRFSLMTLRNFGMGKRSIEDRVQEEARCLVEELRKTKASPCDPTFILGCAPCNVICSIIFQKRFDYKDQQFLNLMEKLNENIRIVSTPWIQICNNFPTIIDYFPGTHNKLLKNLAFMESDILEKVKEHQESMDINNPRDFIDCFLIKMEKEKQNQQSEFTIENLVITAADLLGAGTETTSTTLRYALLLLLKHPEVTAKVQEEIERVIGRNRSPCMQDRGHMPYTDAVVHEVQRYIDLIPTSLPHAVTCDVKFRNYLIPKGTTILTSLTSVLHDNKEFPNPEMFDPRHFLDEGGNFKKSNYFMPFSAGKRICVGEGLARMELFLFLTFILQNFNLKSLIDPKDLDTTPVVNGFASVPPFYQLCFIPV
Sequence of Luciferin 4-monooxygenase (P08659 whole entry): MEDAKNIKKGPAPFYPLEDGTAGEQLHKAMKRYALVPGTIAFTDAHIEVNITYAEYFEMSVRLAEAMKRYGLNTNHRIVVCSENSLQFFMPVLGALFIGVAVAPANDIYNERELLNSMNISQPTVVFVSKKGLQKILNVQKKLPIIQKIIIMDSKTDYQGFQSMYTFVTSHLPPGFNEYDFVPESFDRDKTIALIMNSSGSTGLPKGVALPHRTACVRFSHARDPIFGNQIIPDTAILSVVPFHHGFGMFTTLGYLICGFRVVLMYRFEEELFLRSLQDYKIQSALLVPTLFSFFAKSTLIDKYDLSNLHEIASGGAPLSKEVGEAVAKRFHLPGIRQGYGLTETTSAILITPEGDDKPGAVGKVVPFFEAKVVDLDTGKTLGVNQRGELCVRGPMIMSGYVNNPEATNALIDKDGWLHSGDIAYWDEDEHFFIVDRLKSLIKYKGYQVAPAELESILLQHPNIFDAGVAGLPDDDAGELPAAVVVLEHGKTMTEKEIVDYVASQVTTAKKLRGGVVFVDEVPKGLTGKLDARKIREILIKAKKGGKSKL
Sequence of Cytochrome P450 3A4 (P08684 whole entry): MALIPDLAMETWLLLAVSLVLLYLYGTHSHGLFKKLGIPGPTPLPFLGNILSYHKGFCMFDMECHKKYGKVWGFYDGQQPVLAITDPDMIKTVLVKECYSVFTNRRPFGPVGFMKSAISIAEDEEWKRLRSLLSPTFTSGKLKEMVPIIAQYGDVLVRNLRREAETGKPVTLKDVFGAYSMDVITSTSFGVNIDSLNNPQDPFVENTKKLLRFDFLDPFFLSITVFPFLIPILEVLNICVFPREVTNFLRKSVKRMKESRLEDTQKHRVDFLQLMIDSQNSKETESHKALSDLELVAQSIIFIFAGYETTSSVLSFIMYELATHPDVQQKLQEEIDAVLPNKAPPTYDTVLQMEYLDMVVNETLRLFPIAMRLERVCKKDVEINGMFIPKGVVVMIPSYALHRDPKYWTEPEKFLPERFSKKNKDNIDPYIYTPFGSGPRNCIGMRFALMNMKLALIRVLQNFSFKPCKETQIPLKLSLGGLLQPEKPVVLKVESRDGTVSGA
Sequence of FAD-linked sulfhydryl oxidase ALR (P55789 whole entry): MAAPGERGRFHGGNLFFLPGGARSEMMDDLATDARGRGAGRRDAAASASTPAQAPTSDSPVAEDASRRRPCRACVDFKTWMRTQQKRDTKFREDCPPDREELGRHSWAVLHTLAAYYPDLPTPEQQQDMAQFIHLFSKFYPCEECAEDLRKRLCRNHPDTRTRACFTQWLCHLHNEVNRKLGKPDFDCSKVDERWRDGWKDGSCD
Sequence of Cytochrome P450 2C9 (P11712 whole entry): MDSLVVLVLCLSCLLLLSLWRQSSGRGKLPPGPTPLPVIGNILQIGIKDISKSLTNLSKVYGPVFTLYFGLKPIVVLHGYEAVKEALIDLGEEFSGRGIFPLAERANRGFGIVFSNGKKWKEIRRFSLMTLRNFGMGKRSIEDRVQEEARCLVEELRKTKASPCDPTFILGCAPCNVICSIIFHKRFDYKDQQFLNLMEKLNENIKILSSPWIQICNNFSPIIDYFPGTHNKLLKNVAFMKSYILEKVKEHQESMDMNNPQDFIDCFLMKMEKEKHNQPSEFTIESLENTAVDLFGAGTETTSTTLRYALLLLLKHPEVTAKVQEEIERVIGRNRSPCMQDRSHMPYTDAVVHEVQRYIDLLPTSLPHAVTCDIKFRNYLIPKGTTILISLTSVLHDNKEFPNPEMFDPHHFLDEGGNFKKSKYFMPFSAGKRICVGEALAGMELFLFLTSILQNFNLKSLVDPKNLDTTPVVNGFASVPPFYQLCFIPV

## CCOc1cc(C(=S)N2CCOCC2)ccc1OS(=O)(=O)c1ccc(C)cc1
[1]
  EC50: > 260 µM (inactive)

## O=C(O)c1c(Cl)c(Cl)c(Cl)c(Cl)c1C(=O)N1CCCC1
[1]
  EC50: > 260 µM (inactive)

## Cc1cccc(NC(=O)CC(C)S(=O)(=O)c2ccc3c(c2)NC(=O)CO3)c1C (configuration not stated)
[1]
  EC50: > 260 µM (inactive)

## COC(=O)C1CCN(C(=O)COC(=O)c2ccc(OC)c(S(=O)(=O)N3CCCc4ccccc43)c2)CC1
[1]
  EC50: > 260 µM (inactive)

## COc1ccc(Br)cc1C(=O)Nc1ccc(O)cc1
[2]
  AC50: 2.75 µM (active)

## COC(=O)c1ccc(N2CCN(CC(=O)c3ccc(-c4ccccc4)cc3)CC2)c([N+](=O)[O-])c1
[3]
  EC50: > 112 µM (not active)
[4]
  EC50: > 112 µM (not active)

## CCN1CCCC1CNC(=O)C1c2cc(OC)c(OC)cc2C(=O)N(C)C1c1cccnc1 (configuration not stated)
Cytochrome P450 2C9
  AC50: 1.78 µM (inconclusive)
Cytochrome P450 2C19
  AC50: 1.12 µM (inconclusive)
Cytochrome P450 3A4
  AC50: 5.62 µM (inconclusive)

## Cc1ccc(NC(=O)CSCc2ccc(F)cc2)cc1
[3]
  EC50: > 112 µM (not active)
[4]
  EC50: > 112 µM (not active)

## CNC(=O)[C@H]1O[C@H](n2cnc3c(NCc4cccc(I)c4)ncnc32)[C@@H](O)[C@@H]1O
Cytochrome P450 3A4
  AC50: 31.6 µM (inconclusive)

## CC(NC(=O)c1cc(S(=O)(=O)N2CCCC2)cn1C)c1ccccc1 (configuration not stated)
[3]
  EC50: > 112 µM (not active)
[4]
  EC50: > 112 µM (not active)

## COc1ccc(C2NC(=O)c3[nH]nc(C)c32)c(OC)c1 (configuration not stated)
[3]
  EC50: > 112 µM (not active)
[4]
  EC50: 2.83 µM (active)

## COc1ccc(N2CCN(C(CNC(C)=O)c3ccc4c(c3)OCO4)CC2)cc1 (configuration not stated)
[2]
  AC50: 4.58 µM (active)

## Cc1ccc(O)c(NC(=O)C2CCCN2C(=O)OCc2ccccc2)c1 (configuration not stated)
[2]
  AC50: 8.89 µM (active)

## Cc1ccc(Nc2nc(N3CCOCC3)c3ccccc3n2)cc1
[3]
  EC50: > 112 µM (not active)
[4]
  EC50: > 112 µM (not active)

## Cc1[nH]c2ccccc2c1C(=O)CSc1nncn1C
[3]
  EC50: > 112 µM (not active)
[4]
  EC50: > 112 µM (not active)

## CCN(CCNC(=O)c1ccc(C#N)cc1)c1cccc(C)c1
[2]
  AC50: 1.75 µM (active)

## COc1ccc(OC)c(NC(=O)NNC(=O)COc2ccc(-c3ccccc3)cc2)c1
[5]
  AC50: 47.3 µM (active)

## CCc1ccc(CN2C(=O)c3ccccc3C2C(=O)NCC2CCCO2)cc1 (configuration not stated)
[1]
  EC50: 137 µM (active)

## O=C(NCCc1ccccc1)C(=O)NCC1(c2ccccc2)CCCC1
Cytochrome P450 2C19
  AC50: 39.8 µM (inconclusive)
Cytochrome P450 3A4
  AC50: 3.16 µM (inconclusive)

## NC(=O)NC(=O)CSc1nnc(-c2ccco2)n1Cc1ccccc1
Cytochrome P450 2C9
  AC50: 12.6 µM (inconclusive)
Cytochrome P450 3A4
  AC50: 25.1 µM (inconclusive)

## CC1=CC(=O)OC2CC3OC4C[C@@H](C)C5OC6CC7O[C@]8(C)C/C=C\C9OC%10CC%11OC(CC(C)C%12OCCO%12)CC(O)[C@]%11(C)OC%10CC9OC8C[C@]7(C)O[C@]6(C)CCC5OC4C[C@]3(C)OC12 (some centres not stated)
[6]
  EC50: 5.68 µM (active)

## O=c1c(/C=N/Nc2ccccc2)c(Sc2nnnn2-c2ccccc2)nc2ccccn12
[6]
  EC50: 10.1 µM (active)

## COc1ccc(Br)cc1/C=N/Nc1ccc(Cl)c(C(=O)O)c1
[2]
  AC50: 6.26 µM (active)

## COc1nc(Oc2ccc(/C=N/O)cc2)nc(N(C)C)n1
Cytochrome P450 2C19
  AC50: 17.8 µM (inconclusive)
[2]
  AC50: 2.99 µM (active)
Cytochrome P450 2D6
  AC50: 22.4 µM (inconclusive)

## Cc1[nH]c2ccccc2c1/C=N/O
[2]
  AC50: 20.2 µM (active)
